Measured values: patent US10980809B2, “Urea-substituted aromatic ring-linked dioxane-quinazoline and -linked dioxane-quinoline compounds, preparation method therefor and use thereof” (BEIJING SCITECH-MQ PHARMACEUTICALS LIMITED, priority 2017, dated 2021)

How the values were obtained:
[1] = biological target: C-RAF (Homo sapiens (Human), UniProt P04049); test: Test of small molecule compounds for inhibiting the activity of C-RAF kinase (ADP-Glo)
Experimental: (§11) Test of Small Molecule Compounds for Inhibiting the Activity of C-RAF and B-RAF Kinases
The test was carried out as follows:
(§12) 1. Preparation of test compounds: according to the molecular weight of the compounds, an appropriate volume of DMSO was directly added to dissolve the test compounds. For storing the compound, the concentration of DMSO is 100%, and the final concentration of DMSO in the experimental system is 1%.
(§13) Enzyme: B-RAF: 0.1 ng/l (the final concentration in the reaction system); C-RAF: 0.1 ng/μl (the final concentration in the reaction system)
(§14) HPE: the reaction without enzyme (1% DMSO)
(§15) ZPE: the reaction with enzyme but without compound (1% DMSO)
(§16) a) 1 ul of 10-fold diluted compound or 10% DMSO was added to a 384-well assay plate,
(§17) b) 4 ul enzyme solution or assay buffer was added to the wells of the assay plate,
(§18) c) the plate was centrifuged at 1000 rpm for 1 minute to homogeneous,
(§19) d) 5 ul of ATP-substrate mixture was added to the wells of the assay plate,
(§20) e) the plate was shaked for mixing for 2 minutes,
(§21) f) the plate was incubated at 30° C. for 1 hour,
(§22) g) 10 ul of ADP-Glo reagent was added to the wells of the assay plate, and the plate was incubated for 40 minutes at 27° C.,
(§23) h) 20 ul of kinase assay solution was added to the wells of the plate, and the plate was incubated for 30 minutes at 27° C.,
(§24) i) the chemiluminescent signal was read with Envision.
(§25) The IC50 values of the positive control compound and the test compounds were calculated using the Prism software according to the variable slope of the curve.

[2] = test system: A549 lung cancer cell line; test: Cell survival assay (CCK-8), A549; type: cell-based; conditions: Homo sapiens, A549 cells, 72 h incubation
Experimental: (§1) Biological Example 3. Cell Survival Assay for Small Molecule Compounds
(§2) The specific procedure was carried out as follows:
(§3) 1. 600 μL of trypsin was added to a T75 cell culture flask, it was digested in a 37° C. incubator for about 1 min, then 5 mL of DMEM complete medium was added, which was blowed evenly, transferred to a 15 mL centrifuge tube, and centrifuged at 1000 rpm for 4 min;
(§4) 2. The supernatant was discarded, 5 mL of DMEM complete medium was added, which was blowed evenly, and then mixed with 10 μL of cell suspension and 10 μL of 0.4% trypan blue, and reading was recorded using a cell counter;
(§5) 3. Cells of […] different cell lines (MHCC97H, HuH7, HepG2, A549, 8505C) were seeded in 96-well plates at a cell density of 6000 cells/80 μL of complete medium/well, and cultured overnight. Only sterile water was added in the outer 36 wells of the 96-well plates, and the remaining inside 60 wells were used for cell experiments and controls;
(§6) 4. Dilution of compounds: a total of 10 concentrations of the compounds were obtained using a 3-fold dilution from the starting concentration of 10 mM.
(§7) 5. 20 μL of different compounds in different concentrations were added to each corresponding well, and the remaining wells were added with 20 μL of complete medium, the plate was shaked, and the concentration of DMSO in each well is 0.25%.
(§8) 6. After incubation for 72 h, 10 μL of CCK-8 reagent was added to each well, and cultured at 37° C. for 1-2 h; the OD value was read at 450 nm.
(§9) 7. Cell Viability (%)=[(As−Ab)/(Ac−Ab)]*100% • As: Experimental well (medium containing cells, CCK-8, compound) • Ac: Control well (medium containing cells, CCK-8) • Ab: Blank well (medium without cell and compound, CCK-8)
(§10) Table (3) lists the determination results of the activity of representative compounds of the present disclosure against various cancer cells, wherein MHCC97H, HuH7, and HepG2 are liver cancer cell lines, A549 is a lung cancer cell line, and 8505C is a thyroid cancer cell line.

[3] = test system: HepG2 liver cancer cell line; test: Cell survival assay (CCK-8), HepG2; type: cell-based; conditions: Homo sapiens, HepG2 cells, 72 h incubation
Experimental: as §1, §2, §3, §4, §5, §6, §7, §8, §9, §10

[4] = biological target: B-RAF (Homo sapiens (Human), UniProt P15056); test: Test of small molecule compounds for inhibiting the activity of B-RAF kinase (ADP-Glo)
Chain of B-RAF (P15056 whole entry): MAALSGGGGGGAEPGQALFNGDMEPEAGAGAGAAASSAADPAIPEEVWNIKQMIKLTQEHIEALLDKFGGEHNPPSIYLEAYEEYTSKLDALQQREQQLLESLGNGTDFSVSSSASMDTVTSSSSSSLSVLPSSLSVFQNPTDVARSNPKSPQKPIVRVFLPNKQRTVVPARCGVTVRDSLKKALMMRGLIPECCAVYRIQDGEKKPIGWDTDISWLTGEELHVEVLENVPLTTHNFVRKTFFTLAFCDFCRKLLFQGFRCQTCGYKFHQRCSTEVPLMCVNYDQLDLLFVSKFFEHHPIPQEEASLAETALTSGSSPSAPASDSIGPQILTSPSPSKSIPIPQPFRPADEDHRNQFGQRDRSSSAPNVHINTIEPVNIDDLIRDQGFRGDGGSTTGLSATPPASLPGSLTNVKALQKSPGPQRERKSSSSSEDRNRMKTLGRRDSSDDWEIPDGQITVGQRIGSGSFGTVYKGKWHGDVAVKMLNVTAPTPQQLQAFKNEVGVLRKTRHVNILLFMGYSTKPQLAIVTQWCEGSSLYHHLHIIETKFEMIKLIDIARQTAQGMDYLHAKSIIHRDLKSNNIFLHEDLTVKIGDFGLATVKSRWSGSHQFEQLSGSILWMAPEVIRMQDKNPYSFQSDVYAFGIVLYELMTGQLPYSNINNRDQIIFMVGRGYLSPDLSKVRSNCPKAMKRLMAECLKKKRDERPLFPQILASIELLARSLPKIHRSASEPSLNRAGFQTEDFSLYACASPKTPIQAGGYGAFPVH
Experimental: as §11
The test was carried out as follows:
as §12, §13, §14, §15, §16, §17, §18, §19, §20, §21, §22, §23, §24, §25

[5] = test system: 8505C thyroid cancer cell line; test: Cell survival assay (CCK-8), 8505C; type: cell-based; conditions: Homo sapiens, 8505C cells, 72 h incubation
Experimental: as §1, §2, §3, §4, §5, §6, §7, §8, §9, §10

[6] = test system: HuH7 liver cancer cell line; test: Cell survival assay (CCK-8), HuH7; type: cell-based; conditions: Homo sapiens, Huh-7, HuH7 cells, 72 h incubation
Experimental: as §1, §2, §3, §4, §5, §6, §7, §8, §9, §10

[7] = test system: MHCC97H liver cancer cell line; test: Cell survival assay (CCK-8), MHCC97H; type: cell-based; conditions: Homo sapiens, MHCC97H cells, 72 h incubation
Experimental: as §1, §2, §3, §4, §5, §6, §7, §8, §9, §10

[8] = biological target: VEGFR-2 kinase (Homo sapiens (Human), UniProt P35968); test: Test of small molecule compounds for inhibiting the activity of VEGFR-2 kinase; type: biochemical; conditions: class symbols A-D
Chain of VEGFR-2 kinase (P35968 20-1356): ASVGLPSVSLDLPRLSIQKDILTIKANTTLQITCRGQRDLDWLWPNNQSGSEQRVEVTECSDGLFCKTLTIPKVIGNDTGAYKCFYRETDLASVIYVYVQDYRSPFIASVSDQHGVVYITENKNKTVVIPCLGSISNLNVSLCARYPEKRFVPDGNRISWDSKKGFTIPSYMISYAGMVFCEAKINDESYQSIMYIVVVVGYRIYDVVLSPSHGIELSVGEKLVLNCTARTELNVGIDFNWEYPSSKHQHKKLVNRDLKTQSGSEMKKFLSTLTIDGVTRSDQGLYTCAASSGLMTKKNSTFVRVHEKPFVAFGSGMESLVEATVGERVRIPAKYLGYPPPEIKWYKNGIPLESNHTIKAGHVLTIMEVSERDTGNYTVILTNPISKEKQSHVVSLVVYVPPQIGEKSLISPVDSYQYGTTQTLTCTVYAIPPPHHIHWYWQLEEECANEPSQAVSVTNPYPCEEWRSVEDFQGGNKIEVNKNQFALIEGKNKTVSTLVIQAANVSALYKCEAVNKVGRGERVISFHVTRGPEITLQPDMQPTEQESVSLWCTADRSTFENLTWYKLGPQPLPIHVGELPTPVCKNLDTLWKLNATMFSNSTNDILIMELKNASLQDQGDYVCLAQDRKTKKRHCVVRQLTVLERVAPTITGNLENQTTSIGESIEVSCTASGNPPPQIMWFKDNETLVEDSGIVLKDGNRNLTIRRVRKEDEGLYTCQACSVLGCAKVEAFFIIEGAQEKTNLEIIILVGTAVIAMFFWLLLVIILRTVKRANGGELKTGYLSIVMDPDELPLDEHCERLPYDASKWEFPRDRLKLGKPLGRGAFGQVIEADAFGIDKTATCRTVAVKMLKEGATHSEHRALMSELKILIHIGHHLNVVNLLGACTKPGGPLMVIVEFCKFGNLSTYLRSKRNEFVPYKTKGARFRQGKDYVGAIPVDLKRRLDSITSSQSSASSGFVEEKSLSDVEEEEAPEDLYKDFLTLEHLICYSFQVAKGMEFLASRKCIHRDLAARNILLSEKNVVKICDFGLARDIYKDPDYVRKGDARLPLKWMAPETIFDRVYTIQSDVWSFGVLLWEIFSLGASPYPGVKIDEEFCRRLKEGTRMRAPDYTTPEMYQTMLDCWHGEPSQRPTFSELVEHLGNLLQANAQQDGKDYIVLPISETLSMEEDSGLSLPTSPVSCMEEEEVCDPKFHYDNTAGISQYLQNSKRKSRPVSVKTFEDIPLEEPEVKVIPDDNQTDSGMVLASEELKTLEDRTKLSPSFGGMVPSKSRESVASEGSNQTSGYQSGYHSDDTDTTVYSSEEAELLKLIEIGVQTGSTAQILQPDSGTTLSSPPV
In short: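 Kinase pre-incubated with diluted compounds for 30 min at room temperature, then substrate/ATP mix added and reaction run 60 min at room temperature in the dark […]. Signal read on a plate reader.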

Chain of C-RAF (P04049 whole entry): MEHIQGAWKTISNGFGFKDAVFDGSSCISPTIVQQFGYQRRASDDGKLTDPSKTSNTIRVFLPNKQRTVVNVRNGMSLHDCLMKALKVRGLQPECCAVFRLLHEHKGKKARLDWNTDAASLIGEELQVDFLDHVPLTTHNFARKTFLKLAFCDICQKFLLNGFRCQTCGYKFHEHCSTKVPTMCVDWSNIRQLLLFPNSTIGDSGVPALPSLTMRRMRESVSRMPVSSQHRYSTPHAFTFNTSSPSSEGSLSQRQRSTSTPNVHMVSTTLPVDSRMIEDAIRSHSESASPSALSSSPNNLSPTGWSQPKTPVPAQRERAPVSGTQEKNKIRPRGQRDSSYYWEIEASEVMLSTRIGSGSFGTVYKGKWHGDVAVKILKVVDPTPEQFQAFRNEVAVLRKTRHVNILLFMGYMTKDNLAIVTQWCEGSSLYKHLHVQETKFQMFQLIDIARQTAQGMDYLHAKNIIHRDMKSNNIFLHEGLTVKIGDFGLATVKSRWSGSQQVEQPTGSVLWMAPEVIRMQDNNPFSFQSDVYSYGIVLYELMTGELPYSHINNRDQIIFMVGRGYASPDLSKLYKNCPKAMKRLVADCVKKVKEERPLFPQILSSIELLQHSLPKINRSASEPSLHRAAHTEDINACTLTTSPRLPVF

IC50 [1]: 0.2 to 0.5 µM
IC50 [4]: < 0.2 µM
IC50 [8]: < 0.05 µM
SMILES: COCCOc1cc2ncnc(Oc3ccc(NC(=O)Nc4ccc(Cl)c(C(F)(F)F)c4)c(F)c3)c2c2c1OCCO2 [Example 48, 1-(4-chloro-3-(trifluoromethyl)phenyl)-3-(2-fluoro-4-((5-(2-methoxyethoxy)-2,3-dihydro-[1,4]dioxino[2,3-f]quinazolin-10-yl)oxy)phenyl)urea]
IC50 [2]: 0.59 µM
IC50 [3]: 0.926 µM
IC50 [5]: 0.0219 µM
IC50 [6]: 1.27 µM
IC50 [7]: 1.23 µM
